Data reported in patent US11214594B2, “Antimicrobial peptide having synergistic antibacterial effect with antibiotics on multidrug resistant bacteria, and use thereof” (priority 2016, dated 2022).
Converted amounts (≈) assume the structure as drawn. “And” between values parts separate entries of the source, which are not always exact repeats. Equal values may be shown once. Read-outs that look alike come from different tables or passages of the source. Where a SMILES comes first, the peptide text is derived from it.

What was measured:
MDRAB 12035 = experiment: MIC of antimicrobial peptide during combined treatment with antibiotic; format: cell-based, Acinetobacter baumannii
Procedure, shortened: (§1)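 Strains in MH medium at 2×10^6 CFU/ml were mixed with peptide diluted stepwise (2:1) from its MIC, then antibiotic dilutions in MH medium were added to give the antibiotic MIC. The reversed set-up, peptide titrated against fixed antibiotic, gave the peptide MIC.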

A. baumannii = experiment: as above; format: cell-based, Acinetobacter baumannii
Procedure, shortened: as §1

MDRPA 2003 = format: cell-based, Pseudomonas aeruginosa
Procedure, shortened: (§2)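 MIC read-out = lowest peptide level with no bacterial proliferation. Strains diluted in MH medium to 2×10^6 CFU; peptide twofold serial dilutions in MH added 1:1 in microtiter wells.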

MDRPA 2002 = format: cell-based, Pseudomonas aeruginosa
Procedure, shortened: as §2

MDRAB 12036 = format: cell-based, Acinetobacter baumannii
Procedure, shortened: as §2

MRSA 3114 = format: cell-based, Staphylococcus aureus; settings: 3114
Procedure, shortened: as §2

MRSA 3126 = format: cell-based, Staphylococcus aureus; settings: 3126
Procedure, shortened: as §2

MDRST 8007 = experiment: Minimal inhibitory concentration (MIC), single agent; format: cell-based, Salmonella typhimurium; settings: agent alone
Procedure, shortened: as §2

E. coli [1] = format: cell-based, Escherichia coli; settings: E. coli
Procedure, shortened: as §1

MDREC 1229 [2] = format: cell-based, Escherichia coli
Procedure, shortened: as §1

E. coli [3] = experiment: microbe, parasite or virus in culture; format: cell-based, Escherichia coli; settings: 16 h
Procedure, shortened: as §2

MDREC 1229 [4] = experiment: microbe, parasite or virus in culture; format: cell-based, Escherichia coli
Procedure, shortened: as §2

B. subtilis = experiment: microbe, parasite or virus in culture; format: cell-based, Bacillus subtilis
Procedure, shortened: as §2

[5] = linezolid 64 μg/ml (Conc./MIC 1/8)
[6] = linezolid 512 μg/ml (Conc./MIC 1)
[7] = vancomycin 512 μg/ml (Conc./MIC 1/2)
[8] = vancomycin 1024 μg/ml (Conc./MIC 1)
[9] = erythromycin 4 μg/ml (Conc./MIC 1/8)
[10] = erythromycin 8 μg/ml (Conc./MIC 1/4)
[11] = erythromycin 16 μg/ml (Conc./MIC 1/2)
[12] = erythromycin 32 μg/ml (Conc./MIC 1)
[13] = linezolid 32 μg/ml (Conc./MIC 1/8)
[14] = linezolid 64 μg/ml (Conc./MIC 1/4)
[15] = with Erythromycin […] (Conc./MIC 1)

SMILES: CC[C@H](C)[C@H](NC(=O)[C@H](CCCCN)NC(=O)[C@H](Cc1c[nH]c2ccccc12)NC(=O)[C@@H](N)CCCNC(=N)N)C(=O)N[C@@H](Cc1ccccc1)C(=O)N[C@@H](CCCCN)C(=O)N[C@@H](CCCCN)C(=O)N[C@H](C(=O)N1CCC[C@H]1C(=O)N[C@@H](CCCCN)C(=O)N[C@@H](Cc1ccccc1)C(=O)N[C@@H](CC(C)C)C(=O)N[C@@H](Cc1c[nH]cn1)C(=O)N[C@@H](CO)C(=O)N[C@@H](C)C(=O)N[C@@H](CCCCN)C(=O)N[C@@H](CCCCN)C(=O)N[C@@H](Cc1ccccc1)C(N)=O)[C@@H](C)CC [PapMA-1, RWK IFK KIP KFL HSA KKF-NH2] (H-RWKIFKKIPKFLHSAKKF-NH2; N-terminus assumed)
- Peptide MIC during treatment with linezolid (MDRAB 12035; [5]): 4 µg/mL
- Peptide MIC during treatment with linezolid (MDRAB 12035; [6]): 0 µg/mL
- Peptide MIC during treatment with linezolid (MDRAB 12035; linezolid […] (Conc./MIC 1/2)): 1 µg/mL
- Peptide MIC during treatment with linezolid (MDRAB 12035; linezolid […] (Conc./MIC 1/4)): 4 µg/mL
- Peptide MIC during treatment with vancomycin (MDRAB 12035; [7]): 2 µg/mL
- Peptide MIC during treatment with vancomycin (MDRAB 12035; [8]): 1 µg/mL
- Peptide MIC during treatment with vancomycin (MDRAB 12035; vancomycin […] (Conc./MIC 1/4)): 4 µg/mL
- Peptide MIC during treatment with vancomycin (MDRAB 12035; vancomycin […] (Conc./MIC 1/8)): 4 µg/mL
- Peptide MIC during treatment with antibiotic (A. baumannii; [9]): 4 µg/mL
- Peptide MIC during treatment with erythromycin (A. baumannii; [9]): 4 µg/mL
- Peptide MIC during treatment with antibiotic (A. baumannii; [10]): 4 µg/mL
- Peptide MIC during treatment with erythromycin (A. baumannii; [10]): 4 µg/mL
- Peptide MIC during treatment with antibiotic (A. baumannii; [11]): 2 µg/mL
- Peptide MIC during treatment with erythromycin (A. baumannii; [11]): 2 µg/mL
- Peptide MIC during treatment with antibiotic (A. baumannii; [12]): 0 µg/mL
- Peptide MIC during treatment with erythromycin (A. baumannii; [12]): 0 µg/mL
- Peptide MIC during treatment with antibiotic (A. baumannii; [13]): 4 µg/mL
- Peptide MIC during treatment with linezolid (A. baumannii; [13]): 4 µg/mL
- Peptide MIC during treatment with antibiotic (A. baumannii; [14]): 4 µg/mL
- Peptide MIC during treatment with linezolid (A. baumannii; [14]): 4 µg/mL
- Peptide MIC during treatment with antibiotic (A. baumannii; linezolid […] (Conc./MIC 1)): 0 µg/mL
- Peptide MIC during treatment with linezolid (A. baumannii; linezolid […] (Conc./MIC 1)): 0 µg/mL
- Peptide MIC during treatment with antibiotic (A. baumannii; linezolid […] (Conc./MIC 1/2)): 0.5 µg/mL
- Peptide MIC during treatment with linezolid (A. baumannii; linezolid […] (Conc./MIC 1/2)): 0.5 µg/mL
- Peptide MIC during treatment with antibiotic (A. baumannii; [7]): 0.25 µg/mL
- Peptide MIC during treatment with vancomycin (A. baumannii; [7]): 0.25 µg/mL
- Peptide MIC during treatment with antibiotic (A. baumannii; [8]): 0 µg/mL
- Peptide MIC during treatment with vancomycin (A. baumannii; [8]): 0 µg/mL
- Peptide MIC during treatment with antibiotic (A. baumannii; vancomycin […] (Conc./MIC 1/4)): 0.5 µg/mL
- Peptide MIC during treatment with vancomycin (A. baumannii; vancomycin […] (Conc./MIC 1/4)): 0.5 µg/mL
- Peptide MIC during treatment with antibiotic (A. baumannii; vancomycin […] (Conc./MIC 1/8)): 4 µg/mL
- Peptide MIC during treatment with vancomycin (A. baumannii; vancomycin […] (Conc./MIC 1/8)): 4 µg/mL
- Minimal inhibitory concentration MIC (MDRPA 2003): 32 µg/mL (≈ 13.9 µM)
- Minimal inhibitory concentration MIC (MDRPA 2002): 16 µg/mL (≈ 6.95 µM)
- Minimal inhibitory concentration MIC (MDRAB 12036): 64 µg/mL (≈ 27.8 µM)
- Minimal inhibitory concentration MIC (MRSA 3114): >128 µg/mL
- Minimal inhibitory concentration MIC (MRSA 3126): >128 µg/mL
- Minimal inhibitory concentration MIC (MDRST 8007): 64 µg/mL (≈ 27.8 µM)
- Peptide MIC (E. coli [1]; [15]): 0 µg/mL
- Peptide MIC (E. coli [1]; with Linezolid […] (Conc./MIC 1)): 0 µg/mL
- Peptide MIC (E. coli [1]; with Vancomycin 1024 μg/ml (Conc./MIC 1)): 0 µg/mL
- Peptide MIC during treatment with antibiotic (MDREC 1229 [2]; erythromycin 32 μg/ml (Conc./MIC 1/8)): 2 µg/mL
- Peptide MIC during treatment with antibiotic (MDREC 1229 [2]; erythromycin 64 μg/ml (Conc./MIC 1/4)): 1 µg/mL and 2 µg/mL
- Peptide MIC during treatment with antibiotic (MDREC 1229 [2]; erythromycin […] (Conc./MIC 1)): 0 µg/mL
- Peptide MIC during treatment with antibiotic (MDREC 1229 [2]; erythromycin […] (Conc./MIC 1/2)): 1 µg/mL
- Peptide MIC during treatment with antibiotic (MDREC 1229 [2]; [5]): 2 µg/mL and 4 µg/mL
- Peptide MIC during treatment with antibiotic (MDREC 1229 [2]; [6]): 0 µg/mL
- Peptide MIC during treatment with antibiotic (MDREC 1229 [2]; linezolid […] (Conc./MIC 1/2)): 1 µg/mL
- Peptide MIC during treatment with antibiotic (MDREC 1229 [2]; linezolid […] (Conc./MIC 1/4)): 2 µg/mL
- Peptide MIC during treatment with antibiotic (MDREC 1229 [2]; [7]): 2 µg/mL
- Peptide MIC during treatment with antibiotic (MDREC 1229 [2]; [8]): 1 µg/mL
- Peptide MIC during treatment with antibiotic (MDREC 1229 [2]; vancomycin […] (Conc./MIC 1/4)): 4 µg/mL
- Peptide MIC during treatment with antibiotic (MDREC 1229 [2]; vancomycin […] (Conc./MIC 1/8)): 8 µg/mL
- Peptide MIC (MDREC 1229 [2]; [15]): 0 µg/mL
- Peptide MIC (MDREC 1229 [2]; with Linezolid 512 μg/ml (Conc./MIC 1)): 0 µg/mL
- Minimal inhibitory concentration MIC (E. coli [3]): 64 µg/mL (≈ 27.8 µM)
- Minimal inhibitory concentration MIC (MDREC 1229 [4]): 64 µg/mL (≈ 27.8 µM)
- Peptide MIC, peptide alone (MDREC 1229 [4]): 64 µg/mL
- Minimal inhibitory concentration MIC (B. subtilis): >128 µg/mL
